How the values were obtained:
[1] = system: S. epidermidis NCTC 11047; assay: ZOI of triclosan vapours (vapour phase); assay type: cell-based
[2] = system: EMRSA m97 271 042 phage group 12; assay: ZOI of triclosan vapours (vapour phase)
MSSA (4) = assay: ZOI of triclosan vapours (vapour phase); assay type: cell-based, S. aureus
MRSA 20 = assay: ZOI of triclosan vapours (vapour phase)
[3] = system: all staphylococcal strains; assay: Vapours of triclosan, all strains; assay type: cell-based, Staphylococcus; conditions: vapour phase
[4] = system: EMRSA m97 271 031 phage group 1; assay: ZOI of triclosan vapours (vapour phase)
[5] = system: EMRSA m97 271 088 phage group 6; assay: ZOI of triclosan vapours (vapour phase)
S. epidermidis NCTC 7944 = assay: ZOI of triclosan vapours (vapour phase); assay type: cell-based
MSSA (46) = assay: ZOI of triclosan vapours (vapour phase); assay type: cell-based, S. aureus
MRSA 16 = assay: ZOI of triclosan vapours (vapour phase)
[6] = system: EMRSA m972 71041 phage group 5; assay: ZOI of triclosan vapours (vapour phase)
Strain T1 MSSA = assay: ZOI of triclosan vapours (vapour phase); assay type: cell-based, S. aureus

Oc1cc(Cl)ccc1Oc1ccc(Cl)cc1Cl [triclosan]
ZOI Average ([1]; average): 50.5 mm
ZOI 1 ([1]; replicate 1): 50 mm
ZOI 2 ([1]; replicate 2): 51 mm
ZOI Average ([2]; average): 45 mm
ZOI 1 ([2]; replicate 1): 45 mm
ZOI 2 ([2]; replicate 2): 45 mm
ZOI Average (MSSA (4); average): 51 mm
ZOI 1 (MSSA (4); replicate 1): 50 mm
ZOI 2 (MSSA (4); replicate 2): 52 mm
ZOI Average (MRSA 20; average): 55 mm
ZOI 1 (MRSA 20; replicate 1): 55 mm
ZOI 2 (MRSA 20; replicate 2): 55 mm
effect of vapours on growth [3]: effective at inhibiting growth of all staphylococcal strains
ZOI Average ([4]; average): 41 mm
ZOI 1 ([4]; replicate 1): 42 mm
ZOI 2 ([4]; replicate 2): 40 mm
ZOI Average ([5]; average): 52 mm
ZOI 1 ([5]; replicate 1): 52 mm
ZOI 2 ([5]; replicate 2): 52 mm
ZOI Average (S. epidermidis NCTC 7944; average): 50.5 mm
ZOI 1 (S. epidermidis NCTC 7944; replicate 1): 50 mm
ZOI 2 (S. epidermidis NCTC 7944; replicate 2): 51 mm
ZOI Average (MSSA (46); average): 45 mm
ZOI 1 (MSSA (46); replicate 1): 45 mm
ZOI 2 (MSSA (46); replicate 2): 45 mm
ZOI Average (MRSA 16; average): 55.5 mm
ZOI 1 (MRSA 16; replicate 1): 55 mm
ZOI 2 (MRSA 16; replicate 2): 56 mm
ZOI Average ([6]; average): 55 mm
ZOI 1 ([6]; replicate 1): 55 mm
ZOI 2 ([6]; replicate 2): 55 mm
ZOI Average (Strain T1 MSSA; average): 45.5 mm
ZOI 1 (Strain T1 MSSA; replicate 1): 46 mm
ZOI 2 (Strain T1 MSSA; replicate 2): 45 mm
